{"source": "patent US20090099351A1", "about": "“NYLON POLYRIBONUCLEOSIDES” (New York University, priority 2007, published 2009)", "system": "Phosphodiesterase II (calf spleen phosphodiesterase, CSP)", "test": "Phosphodiesterase II (CSP) controlled exonuclease digestion monitored by MALDI-TOF MS", "type": "in vitro ADME", "settings": "37° C.; for time for CSP digestion to reach the modified nucleotides: 5′-3′ exonuclease; for degradation of the remaining modified fragment by CSP: after 4 h, fragment starting at modified nucleotides", "method": "Phosphodiesterase II controlled digestion for ODNs sequencing. The controlled digestion procedure followed slight modification of the reported protocol (Chou et al., 2000). ODN ([…] in 5 μL water) was mixed with phosphodiesterase II (calf spleen phosphodiesterase, CSP) solution (5 milliunits in 5 μL water) and ammonium citrate water solution (1 μL, 50 g/L). After vortex mixing and centrifuge, the mixture was incubated at 37° C. Aliquots (1 μL) were removed after 0.5, 2, 4, 9, 15, 20, 30, 40, 60, 240 min and quickly mixed with trihydroxyacetophenone (THAP, as MALDI-TOF matrix) solution (1 μL, 30 mg in 1 mL methanol) before being placed in dry ice to quench the reaction. All digestion aliquots were spotted on a target and analyzed by MALDI-TOF MS.\nTo locate the modified regions of nylon nucleic acid, controlled exonuclease digestion was performed on the template-synthesized nylon nucleic acid 3b and 8b with DNA 1 as a control, and monitored as a function of time. Phosphodiesterase II (calf spleen phosphodiesterase, CSP) served as the exonuclease, cleaving from the 5′-terminus. […] In 2 min, the digestion of 3b reached modified nucleotides UnUc. It took 4 min for the digestion of 8b to move to the modified region. […] It has been reported that CSP is inhibited by sugar-modified nucleotides (Pieles et al., 1993) and not by base-modified nucleotides, so these CSP digestion results are consistent with the 2′-ribose modification present in nylon nucleic acids. Furthermore, the sequence information about modified nucleotides from the 5′-end within nylon nucleic acids were also verified."}
{"substance": "5′-GCATAGTTTTTTGTCTAC (DNA, backbone and methylation of C not given here) [DNA 1, reference compound]", "values": [{"measurement": "DNA fragments remaining after CSP digestion", "setting": "in 1 h", "result": "no DNA fragments longer than trimer were detected"}]}
{"substance": "5′-GCATAGTTUnUcTTGTCTAC [3b]", "values": [{"measurement": "time for CSP digestion to reach the modified nucleotides", "result": 2, "unit": "min"}, {"measurement": "degradation of the remaining modified fragment by CSP", "result": "no degradation was detected"}]}
{"substance": "5′-GCATAGUcUnnUccUnnUccUnGTCTAC [8b]", "values": [{"measurement": "time for CSP digestion to reach the modified nucleotides", "result": 4, "unit": "min"}, {"measurement": "degradation of the remaining modified fragment by CSP", "result": "no degradation was detected"}]}
